Patent publication US12012401B2, “Process for preparing N-(5-(3-(7-(3-fluorophenyl)-3H-imidazo[4,5-c]pyridin-2-yl)-1H-indazol-5-yl)pyridin-3-yl)-3-methylbutanamide” (BioSplice Therapeutics, Inc., priority 2016, dated 2024)

Tests used:
Format in all cases: physicochemical
[1] = Heating in DSC chamber, then XRD scan (form conversion)
Description: The Form 1 solid was heated in a DSC chamber to 305° C. (past the endotherm/exotherm around 280° C.), and then scanned by XRD. […] Thus, the endotherm/exotherm around 280° C. might be due to melting/crystallization events.
The Form 2 solid was heated in a DSC machine to 90° C. (past the endotherm between 50-100° C.); to 270° C. (past the endotherm/exotherm around 240° C.); and finally to 330° C. (past the exotherm […]). The residual solid was analyzed by XRD. […] The endotherm between 50-100° C. might be free solvent or hydrate. […] Thus, the exotherm around 290° C. was a re-crystallization event. According to an XRD and DSC overlay, the behavior of Form 2* was similar to Form 2.
Form 13 solid was heated in a DSC chamber to 170° C. (past the endotherm between 50-100° C.), and then scanned by XRD. […] It can be concluded that the endotherm between 50-100° C. is due to bonded water.
Form 13 solid was heated in a DSC chamber to 330° C. (past the endotherm/exotherm around 300° C.), and then scanned by XRD. […] It can be concluded that the endotherm/exotherm is due to melting/crystallization events.

[2] = Competitive reslurry experiments between polymorph forms (thermodynamic stability); conditions: 3-5 days
Description: In order to find out the thermodynamic stability between the different forms, several competitive reslurry experiments were carried out. Form 1, Form 2, Form 2*, Form 3, Form 4, Form 4*, Form 4**, Form 5, Form 7, Form 8, Form 9, Form 10, Form 11, Form 11*, and Form 13 (10 mg for each) were mixed and slurried in 2 mL of solvent at both RT and 50° C. The solids were slurried for 3-5 days and then analyzed by XRD.

[3] = Dynamic vapor sorption (DVS) scan; conditions: for water absorption (DVS scan): at 90% RH
From the text: The purity of the Form 13 sample was 98.8%; the KF of an undried Form 13 sample was 35.7%.

[4] = Form conversion on drying (XRD); conditions: for XRD after drying at 50° C. under vacuum: after air exposure overnight, dried at 50° C. under vacuum
Description: The Form 1 solid was dried at 75° C. under vacuum overnight, and XRD, DSC, and TGA scans were performed. […] However, the DSC scans indicated the absence of endotherm. The loss of the early peak on the DSC scan had no effect on the XRD trace, showing that the endotherm between 50-100° C. on DSC scan was due to the free solvent. The purity of the Form 13 sample was 98.8%; the KF of an undried Form 13 sample was 35.7%. […] Solvates 1 and 2 solids were exposed to air overnight, and then analyzed by XRD. After the analysis, the solids were dried at 50° C. under vacuum, and then analyzed by XRD again.

[5] = Competitive reslurry of Form 1, Form 9 and Form 13 (stability of Form 13 vs Form 9); conditions: toluene, IPAc, n-butyl acetate; 3 days at RT and 50° C.
Description: In order to find out the thermodynamic stability between Form 13 and Form 9, several competitive reslurry experiments were carried out. 15 mg of Form 1, Form 9 and Form 13 solids were mixed in 1 mL of toluene, IPAc, and n-butyl acetate, and slurried for 3 days at RT and 50° C.
The residual solid was analyzed by XRD.

[6] = Reslurry experiments in various solvents (polymorph screen)
Description: Reslurry experiments in various solvents were performed. Approximately 30-80 mg of the starting solid (a non-stoichiometric hydrate of Form 1 having between 1% and about 20% by weight water) was slurried in 39 different solvents (pure and binary solvents; the ratio of organic solvent/water (V/V) was 95%/5%) at RT and 50° C. for 5 days. Three solvates, one non-stoichiometric hydrate, and eleven non-solvated forms were identified. […] XRD of both wet and dry samples were scanned (FIG. 12A (dry sample)).

[7] = Form conversion on exposure to relative humidity / air (XRD); conditions: for XRD after exposure to air overnight: exposed to air overnight
Description: The hydrate lost its water below 30% RH.
Solvates 1 and 2 solids were exposed to air overnight, and then analyzed by XRD. After the analysis, the solids were dried at 50° C. under vacuum, and then analyzed by XRD again.

[8] = Solubility of the starting solid by the gravimetric method; conditions: at RT and at 50° C. in all solvents tested except DMF and DMSO
[9] = Acetontrile/water (5% water), 50° C.
[10] = Heptane/water (5% water), 50° C.
[11] = Toluene/water (5% water), 50° C.
[12] = n-Butanol/water (5% water), 50° C.
[13] = n-Butyl acetate/water (5% water), 50° C.
[14] = n-Butyl acetate/water (5% water), RT
[15] = Acetontrile/water (5% water), RT

Compound: CC(C)CC(=O)Nc1cncc(-c2ccc3[nH]nc(-c4nc5c(-c6cccc(F)c6)cncc5[nH]4)c3c2)c1 [Form 2, N-(5-(3-(7-(3-fluorophenyl)-3H-imidazo[4,5-c]pyridin-2-yl)-1H-indazol-5-yl)pyridin-3-yl)-3-methylbutanamide]
- form after heating (XRD) ([1]; heated in a DSC machine to 90° C.): did not change
- form after heating (XRD) ([1]; heated in a DSC machine to 270° C.): converted to low crystalline solids
- form after heating (XRD) ([1]; heated to 330° C.): converted to Form 9
- thermodynamic stability in competitive reslurry ([2]; MeOH, EtOH, and acetone system at both RT and 50° C.): most stable form

Compound: CC(C)CC(=O)Nc1cncc(-c2ccc3[nH]nc(-c4nc5c(-c6cccc(F)c6)cncc5[nH]4)c3c2)c1 [Form 13, N-(5-(3-(7-(3-fluorophenyl)-3H-imidazo[4,5-c]pyridin-2-yl)-1H-indazol-5-yl)pyridin-3-yl)-3-methylbutanamide]
- water absorption (DVS scan) [3]: 17%
- form change upon drying ([4]; upon drying): converted to Form 1
- form after heating (XRD) ([1]; heated in a DSC chamber to 170° C.): converted to Form 1
- form after heating (XRD) ([1]; heated to 330° C.): converted to Form 9
- thermodynamic stability in competitive reslurry ([2]; water at RT and 50° C.): most stable
- thermodynamic stability between Form 13 and Form 9 [5]: difficult to tell which one was more stable
- Form; Dry [6, 9]: Form 13
- Form; Wet [6, 9]: Form 13
- Form; Dry ([6]; DCM, 50° C.): Form 13
- Form; Wet ([6]; DCM, 50° C.): Form 13
- Form; Dry ([6]; DCM/water (5% water), 50° C.): Form 1
- Form; Wet ([6]; DCM/water (5% water), 50° C.): Form 13
- Form; Dry ([6]; DCM/water (5% water), RT): Form 1
- Form; Wet ([6]; DCM/water (5% water), RT): Form 13
- Form; Dry ([6]; Heptane, 50° C.): Form 13
- Form; Wet ([6]; Heptane, 50° C.): Form 13
- Form; Dry [6, 10]: Form 1
- Form; Wet [6, 10]: Form 13
- Form; Dry ([6]; Heptane/water (5% water), RT): Form 12
- Form; Wet ([6]; Heptane/water (5% water), RT): Form 13
- Form; Dry ([6]; IPAc/water (5% water), 50° C.): Form 13
- Form; Wet ([6]; IPAc/water (5% water), 50° C.): Form 13
- Form; Dry ([6]; MA/water (5% water), RT): Form 1
- Form; Wet ([6]; MA/water (5% water), RT): Form 13
- Form; Dry ([6]; MIBK/water (5% water), 50° C.): Form 1
- Form; Wet ([6]; MIBK/water (5% water), 50° C.): Form 13
- Form; Dry ([6]; MeOH, RT): Form 1
- Form; Wet ([6]; MeOH, RT): Form 13
- Form; Dry ([6]; MeOH/water (5% water), 50° C.): Form 13
- Form; Wet ([6]; MeOH/water (5% water), 50° C.): Form 13
- Form; Dry ([6]; MtBE/water (5% water), 50° C.): Form 13
- Form; Wet ([6]; MtBE/water (5% water), 50° C.): Form 13
- Form; Dry [6, 11]: Form 13
- Form; Wet [6, 11]: Form 13
- Form; Dry ([6]; Toluene/water (5% water), RT): Form 1
- Form; Wet ([6]; Toluene/water (5% water), RT): Form 13
- Form; Dry [6, 12]: Form 1
- Form; Wet [6, 12]: Form 13
- Form; Dry ([6]; n-Butanol/water (5% water), RT): Form 13
- Form; Wet ([6]; n-Butanol/water (5% water), RT): Form 13
- Form; Dry [6, 13]: Form 1
- Form; Wet [6, 13]: Form 13
- Form; Dry [6, 14]: Form 12
- Form; Wet [6, 14]: Form 13
- Form; Dry ([6]; water, 50° C.): Form 13
- Form; Wet ([6]; water, 50° C.): Form 13
- Form; Dry ([6]; water, RT): Form 1
- Form; Wet ([6]; water, RT): Form 13

Compound: CC(C)CC(=O)Nc1cncc(-c2ccc3[nH]nc(-c4nc5c(-c6cccc(F)c6)cncc5[nH]4)c3c2)c1 [non-stoichiometric hydrate of Form 1, N-(5-(3-(7-(3-fluorophenyl)-3H-imidazo[4,5-c]pyridin-2-yl)-1H-indazol-5-yl)pyridin-3-yl)-3-methylbutanamide]
- RH below which the hydrate lost its water ([7]; RH): below 30 % RH

Compound: CC(C)CC(=O)Nc1cncc(-c2ccc3[nH]nc(-c4nc5c(-c6cccc(F)c6)cncc5[nH]4)c3c2)c1 [Solvate 2, N-(5-(3-(7-(3-fluorophenyl)-3H-imidazo[4,5-c]pyridin-2-yl)-1H-indazol-5-yl)pyridin-3-yl)-3-methylbutanamide]
- XRD after exposure to air overnight [7]: changed a little
- XRD after drying at 50° C. under vacuum [4]: remained the same

Compound: CC(C)CC(=O)Nc1cncc(-c2ccc3[nH]nc(-c4nc5c(-c6cccc(F)c6)cncc5[nH]4)c3c2)c1 [starting solid, N-(5-(3-(7-(3-fluorophenyl)-3H-imidazo[4,5-c]pyridin-2-yl)-1H-indazol-5-yl)pyridin-3-yl)-3-methylbutanamide]
- Solubility (in words) [8]: low solubility

Compound: CC(C)CC(=O)Nc1cncc(-c2ccc3[nH]nc(-c4nc5c(-c6cccc(F)c6)cncc5[nH]4)c3c2)c1 [Form 9, N-(5-(3-(7-(3-fluorophenyl)-3H-imidazo[4,5-c]pyridin-2-yl)-1H-indazol-5-yl)pyridin-3-yl)-3-methylbutanamide]
- form before and after the DVS scan ([3]; DVS scan): did not change its form
- water absorption (DVS scan) [3]: 0.8%
- thermodynamic stability between Form 13 and Form 9 [5]: difficult to tell which one was more stable

Compound: CC(C)CC(=O)Nc1cncc(-c2ccc3[nH]nc(-c4nc5c(-c6cccc(F)c6)cncc5[nH]4)c3c2)c1 [Form 12, N-(5-(3-(7-(3-fluorophenyl)-3H-imidazo[4,5-c]pyridin-2-yl)-1H-indazol-5-yl)pyridin-3-yl)-3-methylbutanamide]
- Form; Dry [6, 15]: Form 1
- Form; Wet [6, 15]: Form 12
- Form; Dry ([6]; EA/water (5% water), RT): Form 1
- Form; Wet ([6]; EA/water (5% water), RT): Form 12
- Form; Dry ([6]; Heptane/water (5% water), RT): Form 12
- Form; Wet ([6]; Heptane/water (5% water), RT): Form 13
- Form; Dry ([6]; IPAc/water (5% water), RT): Form 1
- Form; Wet ([6]; IPAc/water (5% water), RT): Form 12
- Form; Dry ([6]; MA/water (5% water), 50° C.): Form 4
- Form; Wet ([6]; MA/water (5% water), 50° C.): Form 12
- Form; Dry ([6]; MIBK/water (5% water), RT): Form 1
- Form; Wet ([6]; MIBK/water (5% water), RT): Form 12
- Form; Dry ([6]; MeOH/water (5% water), RT): Form 1
- Form; Wet ([6]; MeOH/water (5% water), RT): Form 12
- Form; Dry ([6]; MtBE/water (5% water), RT): Form 1
- Form; Wet ([6]; MtBE/water (5% water), RT): Form 12
- Form; Dry [6, 14]: Form 12
- Form; Wet [6, 14]: Form 13

Compound: CC(C)CC(=O)Nc1cncc(-c2ccc3[nH]nc(-c4nc5c(-c6cccc(F)c6)cncc5[nH]4)c3c2)c1 [Form 1, N-(5-(3-(7-(3-fluorophenyl)-3H-imidazo[4,5-c]pyridin-2-yl)-1H-indazol-5-yl)pyridin-3-yl)-3-methylbutanamide]
- water absorption (DVS scan) [3]: 17%
- form change when exposed to air ([7]; exposed to air): converted to a non-stoichiometric hydrate of Form 1
- change of XRD scan after drying ([4]; dried at 75° C. under vacuum overnight): no change
- form after heating (XRD) ([1]; heated in a DSC chamber to 305° C.): converted to Form 9

Compound: CC(C)CC(=O)Nc1cncc(-c2ccc3[nH]nc(-c4nc5c(-c6cccc(F)c6)cncc5[nH]4)c3c2)c1 [Form 4, N-(5-(3-(7-(3-fluorophenyl)-3H-imidazo[4,5-c]pyridin-2-yl)-1H-indazol-5-yl)pyridin-3-yl)-3-methylbutanamide]
- thermodynamic stability in competitive reslurry ([2]; EA at RT and 50° C.): most stable

Compound: CC(C)CC(=O)Nc1cncc(-c2ccc3[nH]nc(-c4nc5c(-c6cccc(F)c6)cncc5[nH]4)c3c2)c1 [Solvate 1, N-(5-(3-(7-(3-fluorophenyl)-3H-imidazo[4,5-c]pyridin-2-yl)-1H-indazol-5-yl)pyridin-3-yl)-3-methylbutanamide]
- XRD after exposure to air overnight [7]: converted to low crystallinity
- XRD after drying at 50° C. under vacuum [4]: still a low crystallinity solid
